Measurements: patent US9096593B2, “Compounds and methods for kinase modulation, and indications therefor” (Plexxikon Inc., priority 2009, dated 2015)
Like-named read-outs stand apart in the source and are kept apart here.

Columns and labels:
[1] = Turbidity assay of relative solubility in aqueous buffers; assay type: physicochemical; settings: for turbidity threshold (L, M, H) 1.4: pH 1.4 as headed (method: SGF pH 1.5); for turbidity threshold (L, M, H) 4.5: pH 4.5 (SIF); for turbidity threshold (L, M, H) 6.8: pH 6.8 (SIF); for turbidity threshold (L, M, H) 7.4: pH 7.4 (HEPES)
Method: As an indication of relative solubility, the turbidity of compounds in aqueous solutions is assessed. To assess possible compound properties in different physiological compartments, such as stomach, intestine, and blood, a series of aqueous buffers with varying pH is used. Thus each compound is diluted into four different physiologically relevant buffers and solution turbidity is measured by spectrophotometry.
Compounds are dissolved at a concentration of 25 mM in dimethyl sulfoxide, then serially diluted 1:1 into a 96 well plate, diluting 10 times in pure dimethyl sulfoxide, with the final well of each row a dimethyl sulfoxide blank. In an assay plate, 99 μL of appropriate buffer is added to each well, and 1 μL of each sample dilution is added to the buffer, achieving a range of final total concentrations in aqueous solutions having different pH. The buffers used are Simulated Gastric Fluid (SGF-pH 1.5) 0.5M NaCl, pH 1.5; Simulated Intestinal fluid (SIF-pH 4.5 and pH 6.8) 0.05M NaH2PO4, pH 4.5 and 6.8; and Hepes Buffer (HEPES-pH 7.4) 10 mM HEPES, 150 mM NaCl, pH 7.4. Control compounds pyrene, estriol and propranolol HCl are also assessed. Plates are spun and then mixed for 1 minute, and the absorbance is read using a Tecan Safire II to read wavelengths in the visible range (490, 535, and 650 nm) at four locations per well, reflecting the degree of turbidity present. The average optical density for each wavelength in each well is graphed vs. compound concentration, and the concentration at which the curve crosses a threshold O.D. of 0.01 for each wavelength is reported as the endpoint turbidity assay result. The average of the three wavelengths is used to compare turbidity of compounds. Compounds are considered to have low solubility if the threshold concentration is <31.3 μM, moderate solubility if the threshold concentration is 31.3 μM to 250 μM, and high solubility if the threshold concentration is >250 μM.

CYP1A2 = CYP1A2 (Homo sapiens (Human), UniProt P05177); assay: CYP enzyme inhibition, fluorescent substrate; settings: human, 15 min
Sequence of CYP1A2 (P05177 whole entry): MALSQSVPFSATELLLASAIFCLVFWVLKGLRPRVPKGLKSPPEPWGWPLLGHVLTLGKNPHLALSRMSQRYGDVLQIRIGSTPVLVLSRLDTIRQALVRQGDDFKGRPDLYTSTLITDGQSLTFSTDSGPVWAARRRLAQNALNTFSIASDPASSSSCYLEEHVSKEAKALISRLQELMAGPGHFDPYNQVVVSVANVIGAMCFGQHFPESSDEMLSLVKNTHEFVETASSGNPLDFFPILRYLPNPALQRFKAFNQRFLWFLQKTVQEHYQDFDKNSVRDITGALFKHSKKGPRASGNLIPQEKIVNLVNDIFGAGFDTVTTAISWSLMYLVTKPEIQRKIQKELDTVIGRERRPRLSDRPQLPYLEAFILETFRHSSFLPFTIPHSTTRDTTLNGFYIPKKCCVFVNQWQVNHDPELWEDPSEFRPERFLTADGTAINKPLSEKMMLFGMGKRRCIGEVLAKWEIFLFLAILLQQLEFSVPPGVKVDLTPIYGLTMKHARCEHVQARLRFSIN
Method: (§1) CYP (Cytochrome P450) enzymes are the major drug metabolizing enzymes present in the liver. The inhibition of CYP enzyme activity (IC50) for each of CYP1A2, CYP2C19, CYP2C9, CYP2D6, CYP3A4(BFC) and CYP3A4(BQ) is determined for compounds, where inhibition of metabolism of a known substrate leads to a decrease in the fluorescence of the metabolized product. The fluorescence of the product is monitored as a function of compound concentration.
(§2) Compounds are dissolved in DMSO to a concentration of 100 mM. These are diluted 1 μL into 82 μL of acetonitrile. An 11 μL aliquot of this solution is then added to 204 μL of cofactor mix (1.3% NADPH Regeneration system Solution A, 1.04% NADPH Regeneration system Solution B from BD Biosciences, 5% acetonitrile and 0.05% DMSO). These are then serially diluted 1:1 (160 μL to 160 μL co-factor mix) for a total of 10 points. A 10 μL aliquot of this final mixture is dispensed into 384 well assay plates and incubated for 10 minutes at 37° C. Enzyme and substrate mix (10 μL; […] CYP1A2/5 μM CEC; 1.0 μmol CYP2C9/75 μM MFC; […] CYP2C19/25 μM CEC; 1.5 μmol CYP2D6/1.5 μM AMMC; 1.0 μmol CYP3A4/50 μM BFC; or 1.0 μmol CYP3A4/40 μM BQ) is added to these assay plates. Assay plates are incubated at 37° C. (CYP1A2-15 min; CYP2C9-45 min; CYP2C19, 2D6 and 3A4-30 min) and read in a Tecan Safire 2 plate reader (CYP1A2, 2C19 and 3A4 409 ex/460 em; CYP2C9 and 2D6409 ex/530 em). The signal versus compound concentration is used to determine the IC50. The enzymes and substrates for this assay are obtained from BD Biosciences.

CYP2C19 = CYP2C19 (Homo sapiens (Human), UniProt P33261); assay: CYP enzyme inhibition, fluorescent substrate
Sequence of CYP2C19 (P33261 whole entry): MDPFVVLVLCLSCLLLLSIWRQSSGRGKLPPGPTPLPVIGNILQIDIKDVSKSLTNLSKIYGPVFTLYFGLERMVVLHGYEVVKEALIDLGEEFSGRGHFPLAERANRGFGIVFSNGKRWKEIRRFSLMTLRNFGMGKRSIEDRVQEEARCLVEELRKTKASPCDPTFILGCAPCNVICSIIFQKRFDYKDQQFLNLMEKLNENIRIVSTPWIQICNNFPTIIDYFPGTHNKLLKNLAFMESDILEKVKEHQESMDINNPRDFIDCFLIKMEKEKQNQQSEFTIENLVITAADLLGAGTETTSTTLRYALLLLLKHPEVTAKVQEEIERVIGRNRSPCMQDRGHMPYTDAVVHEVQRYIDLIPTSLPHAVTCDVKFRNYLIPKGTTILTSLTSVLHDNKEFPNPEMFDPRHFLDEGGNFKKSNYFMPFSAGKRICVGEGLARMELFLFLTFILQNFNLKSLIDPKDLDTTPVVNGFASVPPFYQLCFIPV
Method: as §1, §2

CYP2C9 = CYP2C9 (Homo sapiens (Human), UniProt P11712); assay: CYP enzyme inhibition, fluorescent substrate
Sequence of CYP2C9 (P11712 whole entry): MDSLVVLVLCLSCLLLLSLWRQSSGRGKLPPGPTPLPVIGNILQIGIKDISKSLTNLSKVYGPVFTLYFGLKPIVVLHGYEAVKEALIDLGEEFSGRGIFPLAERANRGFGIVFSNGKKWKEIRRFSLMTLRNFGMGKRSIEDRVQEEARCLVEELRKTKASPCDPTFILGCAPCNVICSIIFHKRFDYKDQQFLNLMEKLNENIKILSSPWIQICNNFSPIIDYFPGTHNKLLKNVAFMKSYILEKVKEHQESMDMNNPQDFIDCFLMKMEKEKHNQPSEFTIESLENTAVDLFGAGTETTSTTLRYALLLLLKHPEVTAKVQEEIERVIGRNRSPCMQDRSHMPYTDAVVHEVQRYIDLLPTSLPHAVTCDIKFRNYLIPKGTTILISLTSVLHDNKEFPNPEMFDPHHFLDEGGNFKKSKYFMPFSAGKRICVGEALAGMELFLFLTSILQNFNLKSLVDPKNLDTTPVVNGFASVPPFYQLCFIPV
Method: as §1, §2

CYP2D6 = CYP2D6 (Homo sapiens (Human), UniProt P10635); assay: CYP enzyme inhibition, fluorescent substrate; settings: read-out: Cyp IC50 (μM) 2D6
Sequence of CYP2D6 (P10635 whole entry): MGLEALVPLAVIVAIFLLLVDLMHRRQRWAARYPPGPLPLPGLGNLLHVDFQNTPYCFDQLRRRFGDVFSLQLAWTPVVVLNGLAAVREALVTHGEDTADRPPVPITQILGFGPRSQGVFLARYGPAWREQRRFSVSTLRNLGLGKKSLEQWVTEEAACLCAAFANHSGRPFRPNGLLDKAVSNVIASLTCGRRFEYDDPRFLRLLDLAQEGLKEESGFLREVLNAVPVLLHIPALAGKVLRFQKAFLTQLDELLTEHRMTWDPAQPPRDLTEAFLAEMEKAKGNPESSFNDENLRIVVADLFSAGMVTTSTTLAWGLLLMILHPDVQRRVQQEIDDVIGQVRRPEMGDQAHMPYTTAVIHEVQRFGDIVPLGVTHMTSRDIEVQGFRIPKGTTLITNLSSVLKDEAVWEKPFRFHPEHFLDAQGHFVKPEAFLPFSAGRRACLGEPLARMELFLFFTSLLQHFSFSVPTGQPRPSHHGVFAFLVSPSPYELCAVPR
Method: as §1, §2

CYP3A4(BFC) = CYP3A4(BFC) (Homo sapiens (Human), UniProt P08684); assay: CYP enzyme inhibition, fluorescent substrate
Sequence of CYP3A4(BFC) (P08684 whole entry): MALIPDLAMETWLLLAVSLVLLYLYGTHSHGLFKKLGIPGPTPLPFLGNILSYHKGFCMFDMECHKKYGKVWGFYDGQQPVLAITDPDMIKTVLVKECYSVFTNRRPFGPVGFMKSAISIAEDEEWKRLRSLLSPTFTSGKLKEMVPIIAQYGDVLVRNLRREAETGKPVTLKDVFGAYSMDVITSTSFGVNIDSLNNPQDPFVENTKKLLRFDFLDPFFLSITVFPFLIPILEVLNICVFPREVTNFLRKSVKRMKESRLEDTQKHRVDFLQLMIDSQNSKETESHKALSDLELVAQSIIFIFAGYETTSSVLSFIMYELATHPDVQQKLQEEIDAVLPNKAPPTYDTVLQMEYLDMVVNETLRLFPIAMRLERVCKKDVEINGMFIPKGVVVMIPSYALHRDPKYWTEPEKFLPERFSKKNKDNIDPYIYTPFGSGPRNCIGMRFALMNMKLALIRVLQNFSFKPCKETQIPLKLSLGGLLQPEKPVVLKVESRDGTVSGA
Method: as §1, §2

CYP3A4(BQ) = CYP3A4(BQ) (Homo sapiens (Human), UniProt P08684); assay: CYP enzyme inhibition, fluorescent substrate; settings: read-out: Cyp IC50 (μM) 3A4(BQ); BQ substrate
Sequence of CYP3A4(BQ) (P08684 whole entry): as above
Method: as §1, §2

Fms kinase = Fms kinase (Homo sapiens (Human), UniProt P07333); assay: Fms kinase biochemical activity assay (AlphaScreen, biotin-(E4Y)10 phosphorylation)
Sequence of Fms kinase (P07333 20-972): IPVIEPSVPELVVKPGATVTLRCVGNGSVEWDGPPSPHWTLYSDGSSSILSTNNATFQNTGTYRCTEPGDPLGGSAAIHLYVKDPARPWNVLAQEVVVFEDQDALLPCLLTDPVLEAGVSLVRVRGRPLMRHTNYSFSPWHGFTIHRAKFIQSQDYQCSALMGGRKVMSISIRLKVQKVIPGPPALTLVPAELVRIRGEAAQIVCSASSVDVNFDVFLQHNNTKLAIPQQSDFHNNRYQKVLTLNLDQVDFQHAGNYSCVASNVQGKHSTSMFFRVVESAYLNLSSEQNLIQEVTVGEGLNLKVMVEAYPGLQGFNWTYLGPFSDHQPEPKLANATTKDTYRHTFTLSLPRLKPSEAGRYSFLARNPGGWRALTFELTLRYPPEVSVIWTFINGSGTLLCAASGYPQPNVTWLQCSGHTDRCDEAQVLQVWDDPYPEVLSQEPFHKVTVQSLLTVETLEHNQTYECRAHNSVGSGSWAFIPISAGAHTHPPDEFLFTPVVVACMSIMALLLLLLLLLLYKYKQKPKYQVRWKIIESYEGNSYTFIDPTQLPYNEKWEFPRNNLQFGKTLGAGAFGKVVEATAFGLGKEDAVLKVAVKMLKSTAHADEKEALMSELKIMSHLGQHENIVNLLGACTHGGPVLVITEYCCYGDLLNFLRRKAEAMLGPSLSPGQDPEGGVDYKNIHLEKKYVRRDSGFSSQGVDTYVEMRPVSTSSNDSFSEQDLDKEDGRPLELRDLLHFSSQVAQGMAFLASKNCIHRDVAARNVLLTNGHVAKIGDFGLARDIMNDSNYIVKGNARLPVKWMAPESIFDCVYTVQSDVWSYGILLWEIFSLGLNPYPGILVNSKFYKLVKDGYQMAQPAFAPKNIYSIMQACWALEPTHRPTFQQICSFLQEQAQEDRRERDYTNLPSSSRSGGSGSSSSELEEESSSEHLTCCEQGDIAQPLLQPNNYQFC
Method: In one assay the biochemical activity IC50 values are determined with respect to inhibition of Fms kinase activity, where inhibition of phosphorylation of a peptide substrate is measured as a function of compound concentration. Compounds to be tested, dissolved in DMSO (1 μL), are added to a white 384-well plate (Costar #3705). Working stocks of Fms kinase (Invitrogen #PV3249), biotin-(E4Y)10 substrate (Upstate Biotech, Cat#12-440), and ATP (Sigma, Cat#A-3377) are prepared in 25 mM Hepes pH 7.5, 0.5 mM MgCl2, 2 mM MnCl2, 2 mM DTT, 0.01% BSA, and 0.01% Tween-20. All components are added to the 384-well plate for a final concentration of 1 ng/well Fms, 30 nM biotin-(E4Y)10 (Upstate Biotechnology) and 100 μM ATP in a volume of 20 μL. Each sample is at 5% DMSO. The plate is then incubated for 20 minutes at 30° C. Just before use, working stocks of donor and acceptor beads from the AlphaScreen PY20 Detection Kit (PerkinElmer, Cat#676601M) are prepared in 25 mM Hepes pH 7.5, pH 7.4, 100 mM EDTA, 0.01% BSA. To stop the reaction, the plate is uncovered in the dark and 5 μL of Donor Beads solution (Streptavidin beads) is added to each well. The plate is incubated at room temperature for 20 minutes. Five microliters of Acceptor Beads solution (PY20 coated beads) are then added to each well. The final concentration of each bead is 10 μg/mL. The plates are incubated at room temperature for 60 minutes. Fluorescence signal is recorded on the Envision reader. […] The signal vs. compound concentration is used to determine the IC50.

c-Kit kinase = c-Kit kinase (Homo sapiens (Human), UniProt P10721); assay: c-Kit kinase biochemical activity assay (AlphaScreen, biotin-(E4Y)10 phosphorylation)
Sequence of c-Kit kinase (P10721 26-976): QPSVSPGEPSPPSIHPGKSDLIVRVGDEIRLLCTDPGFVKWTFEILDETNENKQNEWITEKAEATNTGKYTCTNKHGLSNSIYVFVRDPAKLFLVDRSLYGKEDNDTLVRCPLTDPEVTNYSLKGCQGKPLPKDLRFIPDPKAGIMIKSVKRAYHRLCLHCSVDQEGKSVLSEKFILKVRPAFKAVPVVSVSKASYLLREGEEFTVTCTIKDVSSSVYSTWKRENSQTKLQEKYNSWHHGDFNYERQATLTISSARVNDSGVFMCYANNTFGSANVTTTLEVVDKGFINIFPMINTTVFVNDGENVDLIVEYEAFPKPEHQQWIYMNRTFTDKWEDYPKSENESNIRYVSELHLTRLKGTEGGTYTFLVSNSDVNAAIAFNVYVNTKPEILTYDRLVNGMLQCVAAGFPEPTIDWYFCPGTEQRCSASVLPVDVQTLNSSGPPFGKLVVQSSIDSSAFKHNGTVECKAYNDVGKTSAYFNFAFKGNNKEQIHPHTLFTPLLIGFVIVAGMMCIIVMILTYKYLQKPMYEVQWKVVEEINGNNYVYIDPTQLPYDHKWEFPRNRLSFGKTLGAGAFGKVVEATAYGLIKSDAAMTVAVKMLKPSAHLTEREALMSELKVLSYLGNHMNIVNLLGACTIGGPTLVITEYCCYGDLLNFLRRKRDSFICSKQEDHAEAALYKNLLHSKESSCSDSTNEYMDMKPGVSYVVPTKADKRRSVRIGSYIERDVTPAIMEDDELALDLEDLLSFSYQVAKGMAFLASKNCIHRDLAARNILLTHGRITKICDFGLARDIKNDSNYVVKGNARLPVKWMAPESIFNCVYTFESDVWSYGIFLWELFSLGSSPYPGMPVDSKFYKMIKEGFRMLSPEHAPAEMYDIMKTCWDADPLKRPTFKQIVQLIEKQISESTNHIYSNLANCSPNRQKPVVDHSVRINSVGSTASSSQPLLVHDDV
Method: In one assay the biochemical activity IC50 values are determined with respect to inhibition of c-Kit kinase activity, where inhibition of phosphorylation of a peptide substrate is measured as a function of compound concentration. Compounds to be tested are dissolved in DMSO to a concentration of 20 mM. These are diluted 30 μL into 120 μL of DMSO (4 mM) and 1 μL is added to an assay plate. These are then serially diluted […] (50 μL to 100 μL DMSO) for a total of 8 points. Plates are prepared such that each kinase reaction is 20 μL in 1× kinase buffer (25 mM HEPES, pH 7.5, 2 mM MgCl2, 2 mM MnCl2, 0.01% Tween-20, 1 mM DTT, 0.01% BSA), 5% DMSO and 100 μM ATP. Substrate is 30 nM biotin-(E4Y)10 (Millipore). C-kit kinase (obtained from Millipore (#14-559) or is prepared as described in U.S. Patent Application Publication Number 2009/0076046, the disclosure of which is hereby incorporated by reference as it relates to this assay) is at 0.75 ng per sample. After incubation of the kinase reaction for 1 hour at room temperature, 5 μL of donor beads (Streptavidin coated beads (Perkin Elmer Life Science) final concentration 10 μg/mL) in stop buffer (25 mM Hepes pH 7.5, 100 mM EDTA, 0.01% BSA) is added, the sample is mixed and incubated for 20 minutes at room temperature before adding 5 μL of acceptor beads (PY20 coated beads (Perkin Elmer Life Science) final concentration 10 μg/mL) in stop buffer. The samples are incubated for 60 minutes at room temperature and the signal per well is read on Envision reader. […] The signal vs. compound concentration is used to determine the IC50.

Biochemical activity selectivity (Kit IC50/Fms IC50) (Fms kinase; Kit IC50/Fms IC50, biochemical)	IC50 (Fms kinase; read-out: Biochemical activity (IC50 μM) Fms)	IC50 (c-Kit kinase)	IC50 (CYP2C19; read-out: Cyp IC50 (μM) 2C19)	IC50 (CYP2C9; read-out: Cyp IC50 (μM) 2C9)	IC50 (CYP3A4(BFC); read-out: Cyp IC50 (μM) 3A4(BFC), BFC substrate)	SMILES	turbidity threshold (L, M, H) 1.4 [1]	turbidity threshold (L, M, H) 4.5 [1]	turbidity threshold (L, M, H) 6.8 [1]	turbidity threshold (L, M, H) 7.4 [1]	IC50 (CYP1A2)	IC50 (CYP2C19)	IC50 (CYP2C9)	IC50 (CYP2D6)	IC50 (CYP3A4(BFC))	IC50 (CYP3A4(BQ))
–	–	–	–	–	–	COc1ncc(F)cc1CNc1ccc(Cc2c[nH]c3ncc(C)cc23)c(F)n1 [Compound P-2049, (5-Fluoro-2-methoxy-pyridin-3-ylmethyl)-[6-fluoro-5-(5-methyl-1H-pyrrolo[2,3-b]pyridin-3-ylmethyl)-pyridin-2-yl]-amine]	M (moderate solubility if the threshold concentration is 31.3 μM to 250 μM)	L (low solubility if the threshold concentration is <31.3 μM)	L (low solubility if the threshold concentration is <31.3 μM)	L (low solubility if the threshold concentration is <31.3 μM)	> 10 µM	5 to 10 µM	5 to 10 µM	> 10 µM	5 to 10 µM	> 10 µM
>20	< 0.1 µM	> 0.1 µM	< 5 µM	< 5 µM	< 5 µM	Cc1cnc2[nH]cc(Cc3ccc(NCc4ccnc(C)c4)nc3F)c2c1 [Compound P-2067, [6-Fluoro-5-(5-methyl-1H-pyrrolo[2,3-b]pyridin-3-ylmethyl)-pyridin-2-yl]-(2-methyl-pyridin-4-ylmethyl)-amine]	H (high solubility if the threshold concentration is >250 μM)	H (high solubility if the threshold concentration is >250 μM)	H (high solubility if the threshold concentration is >250 μM)	H (high solubility if the threshold concentration is >250 μM)	> 10 µM	–	–	–	–	> 10 µM
